From US7618990B2, “Oxazolidone derivatives as PR modulators” (Wyeth, priority 2006, dated 2009) come the findings set out here.

The test system of data set [1] is alkaline phosphatase activity in T47D cells. Put plainly: Effects of progestins and antiprogestins on alkaline phosphatase activity in T47D cells (antagonist mode). It is filed as cell-based. Particulars: Homo sapiens, in the presence of 1 nM progesterone, read-out: T47D Alkaline Phosphatase Activity IC50 (nM) or % inhibition; for IC50: 24 h; for inhibition at 3 µM: % inhibition at 3000 nM. The protocol:
(1) Effects of Progestins and Antiprogestins on Alkaline Phosphatase Activity in T47D Cells
PURPOSE: To identify progestins or antiprogestins by determining a compound's effect on alkaline phosphatase activity in T47D cells.
Culture Medium: • DMEM:F12 (1:1) (GIBCO, BRL) supplemented with 5% (v/v) charcoal stripped fetal bovine serum (not heat-inactivated), 100 U/mL penicillin, 100 μg/mL streptomycin, and 2 mM the GlutaMax™ reagent (GIBCO, BRL).
Alkaline Phosphatase Assay Buffer: • I. 0.1M Tris-HCl, pH 9.8, containing 0.2% the Triton® X-100 reagent • II. 0.1M Tris-HCl, pH 9.8, containing 4 mM p-nitrophenyl phosphate (Sigma). B. Cell Culture and Treatment:
Frozen T47D cells were thawed in a 37° C. water bath and diluted to 280,000 cells/mL in culture medium. To each well in a 96-well plate (Falcon, Becton Dickinson Labware), 180 μL of diluted cell suspension was added.
Twenty μL of reference or test compounds diluted in the culture medium was then added to each well. When testing for progestin antagonist activity, reference antiprogestins or test compounds were added in the presence of 1 nM progesterone. The cells were incubated at 37° C. in a 5% CO2/humidified atmosphere for 24 h.
NOTE: For high throughput screening, one concentration of each compound was tested at 0.3 μg/mL. Based on an average molecular weight of 300 g/mol for the compounds in the library, the concentration was approximately 1 μM. Subsequently, active compounds were tested in dose response assays to determine EC50 and IC50. C. Alkaline Phosphatase Enzyme Assay:
At the end of treatment, the medium was removed from the plate. Fifty μL of assay buffer I was added to each well. The plates were shaken in a titer plate shaker for 15 min. Then 150 μL of assay buffer II was added to each well. Optical density measurements were taken at 5 min intervals for 30 min at a test wavelength of 405 nm.
For reference and test compounds, a dose response curve was generated for dose (X-axis) vs. the rate of enzyme reaction (slope) (Y-axis). Square root-transformed data was used for analysis of variance and nonlinear dose response curve fitting for both agonist and antagonist modes. Huber weighting was used to down-weight the effects of outliers. EC50 or IC50 values were calculated from the retransformed values. JMP software (SAS Institute, Inc.) was used for both one-way analysis of variance and non-linear dose response analysis in both single dose and dose response studies.
Progesterone and trimegestone were reference progestins and RU486 was the reference antiprogestin. All reference compounds were run in full dose response curves and the EC50 and IC50 values were calculated.

As usually defined, the melting point is the temperature, or range, at which the solid turns liquid. What is called IC50 is the concentration at which inhibition is half-maximal. The inhibition is how much of the control response was suppressed.

The molecule `CC1(C)COC(=O)N1c1nc(-c2ccc(C#N)cc2)cs1` [Example 6, 4-[2-(4,4-Dimethyl-2-oxo-1,3-oxazolidin-3-yl)-1,3-thiazol-4-yl]benzonitrile] had a melting point of 183 to 185 °C. Further, the IC50 in data set [1] was found to be 3.1 nM.

Molecule `CC[C@H]1COC(=O)N1c1nc(-c2ccc(Br)cc2)c(F)s1` [Example 11, (4S)-3-[4-(4-Bromophenyl)-5-fluoro-1,3-thiazol-2-yl]-4-ethyl-1,3-oxazolidin-2-one] came in with a melting point of 105 to 107 °C. Moreover, the IC50 in data set [1] is 120 nM.

`CC[C@H]1COC(=O)N1c1nc(-c2ccc(C#N)cc2)c(F)s1` [Example 12, 4-{2-[(4S)-4-Ethyl-2-oxo-1,3-oxazolidin-3-yl]-5-fluoro-1,3-thiazol-4-yl}benzonitrile] gave a melting point of 157 to 159 °C. Also, the IC50 in data set [1] stood at 23.3 nM.

In the case of `CC[C@H]1COC(=O)N1c1nc(-c2ccc(Br)cc2)c(Cl)s1` [Example 13, (4S)-3-[4-(4-Bromophenyl)-5-chloro-1,3-thiazol-2-yl]-4-ethyl-1,3-oxazolidin-2-one], the melting point was 137 to 139 °C. For the same molecule, the IC50 in data set [1] turned out to be 124 nM.

The molecule `CC[C@H]1COC(=O)N1c1nc(-c2ccc(C#N)cc2)c(Cl)s1` [Example 14, 4-{5-Chloro-2-[(4S)-4-ethyl-2-oxo-1,3-oxazolidin-3-yl]-1,3-thiazol-4-yl}benzonitrile] displayed a melting point of 157 to 159 °C. The half-inhibitory concentration (IC50) in data set [1] was determined as 294 nM.

`CC[C@H]1COC(=O)N1c1nc(-c2ccc(C#N)cc2)c(C#N)s1` [Example 15, 4-(4-Cyanophenyl)-2-[(4S)-4-ethyl-2-oxo-1,3-oxazolidin-3-yl]-1,3-thiazole-5-carbonitrile]: the melting point lay in the range of 201 to 203 °C. Also, the IC50 in data set [1] worked out at 144 nM.

For `C[C@@H]1COC(=O)N1c1nc(-c2cccc(Br)c2)cs1` [Example 16, (4R)-3-[4-(3-bromophenyl)-1,3-thiazol-2-yl]-4-methyl-1,3-oxazolidin-2-one], the melting point was in the range of 126 to 128 °C. Besides, the IC50 in data set [1] turned out to be 142 nM.

`C[C@@H]1COC(=O)N1c1nc(-c2cccc(C#N)c2)cs1` [Example 17, 3-{2-[(4R)-4-Methyl-2-oxo-1,3-oxazolidin-3-yl]-1,3-thiazol-4-yl}benzonitrile] came in with a melting point of 187 to 189 °C. For the same molecule, in data set [1], the inhibition at 3 µM amounted to 84%.

`CC1(C)COC(=O)N1c1nc(-c2cccc(Br)c2)cs1` [Example 18, 3-[4-(3-Bromophenyl)-1,3-thiazol-2-yl]-4,4-dimethyl-1,3-oxazolidin-2-one] gave a melting point of 142 to 144 °C. The IC50 in data set [1] is 30 nM.

In the case of `CC1(C)COC(=O)N1c1nc(-c2cc(Cl)cc(Cl)c2)cs1` [Example 116, 3-[4-(3,5-Dichlorophenyl)-1,3-thiazol-2-yl]-4,4-dimethyl-1,3-oxazolidin-2-one], in data set [1], the IC50 stood at 461 nM.

Consider `CC1(C)COC(=O)N1c1nc(-c2ccc(F)c(Cl)c2)cs1` [Example 117, 3-[4-(3-Chloro-4-fluorophenyl)-1,3-thiazol-2-yl]-4,4-dimethyl-1,3-oxazolidin-2-one], for which the IC50 in data set [1] worked out at 50.4 nM.

In the case of `CC1(C)COC(=O)N1c1nc(-c2ccc(Cl)cc2Cl)cs1` [Example 118, 3-[4-(2,4-Dichlorophenyl)-1,3-thiazol-2-yl]-4,4-dimethyl-1,3-oxazolidin-2-one], the inhibition at 0.03 µM in data set [1] (% inhibition at 30 nM) stood at 60%.

For `CC1(C)COC(=O)N1c1nc(-c2ccc(Cl)c(Cl)c2)cs1` [Example 119, 3-[4-(3,4-Dichlorophenyl)-1,3-thiazol-2-yl]-4,4-dimethyl-1,3-oxazolidin-2-one], the IC50 in data set [1] worked out at 48 nM.

Regarding `CC1(C)COC(=O)N1c1nc(-c2ccccc2)cs1` [Example 120, 4,4-Dimethyl-3-(4-phenyl-1,3-thiazol-2-yl)-1,3-oxazolidin-2-one], the IC50 in data set [1] stood at 247 nM.

On to `Cc1ccc(-c2csc(N3C(=O)OCC3(C)C)n2)cc1` [Example 121, 4,4-Dimethyl-3-[4-(4-methylphenyl)-1,3-thiazol-2-yl]-1,3-oxazolidin-2-one], for which, in data set [1], the IC50 is 110 nM.

Consider `CC1(C)COC(=O)N1c1nc(-c2ccc3ccccc3c2)cs1` [Example 122, 4,4-Dimethyl-3-[4-(2-naphthyl)-1,3-thiazol-2-yl]-1,3-oxazolidin-2-one], for which the IC50 in data set [1] amounted to 557 nM.

For `CC1(C)COC(=O)N1c1nc(-c2ccccc2[N+](=O)[O-])cs1` [Example 123, 4,4-Dimethyl-3-[4-(2-nitrophenyl)-1,3-thiazol-2-yl]-1,3-oxazolidin-2-one], the IC50 in data set [1] was determined as 1420 nM.

Consider `CC1(C)COC(=O)N1c1nc(-c2cccc([N+](=O)[O-])c2)cs1` [Example 124, 4,4-Dimethyl-3-[4-(3-nitrophenyl)-1,3-thiazol-2-yl]-1,3-oxazolidin-2-one], for which the IC50 in data set [1] was determined as 59.7 nM.

As for `CC1(C)COC(=O)N1c1nc(-c2ccc(OCc3ccccc3)cc2)cs1` [Example 125, 3-{4-[4-(Benzyloxy)phenyl]-1,3-thiazol-2-yl}-4,4-dimethyl-1,3-oxazolidin-2-one], in data set [1], the inhibition at 3 µM is 80%.

Take `Cc1cc(-c2csc(N3C(=O)OCC3(C)C)n2)ccc1F` [Example 126, 3-[4-(4-Fluoro-3-methylphenyl)-1,3-thiazol-2-yl]-4,4-dimethyl-1,3-oxazolidin-2-one]: the IC50 in data set [1] stood at 33.4 nM.

Consider `CC1(C)COC(=O)N1c1nc(-c2ccc(Oc3ccccc3)cc2)cs1` [Example 127, 4,4-Dimethyl-3-[4-(4-phenoxyphenyl)-1,3-thiazol-2-yl]-1,3-oxazolidin-2-one], for which, in data set [1], the inhibition at 3 µM worked out at 87%.

`CC1(C)COC(=O)N1c1nc(-c2ccc(-c3ccccc3)cc2)cs1` [Example 128, 3-(4-Biphenyl-4-yl-1,3-thiazol-2-yl)-4,4-dimethyl-1,3-oxazolidin-2-one]: the inhibition at 3 µM in data set [1] was determined as 47%.

With `COC(=O)c1ccc(-c2csc(N3C(=O)OCC3(C)C)n2)cc1` [Example 129, Methyl 4-[2-(4,4-dimethyl-2-oxo-1,3-oxazolidin-3-yl)-1,3-thiazol-4-yl]benzoate], the IC50 in data set [1] amounted to 20.3 nM.

As for `COC(=O)c1ccc(-c2nc(N3C(=O)OCC3(C)C)sc2Cl)cc1` [Example 130, Methyl 4-[5-chloro-2-(4,4-dimethyl-2-oxo-1,3-oxazolidin-3-yl)-1,3-thiazol-4-yl]benzoate], the IC50 in data set [1] turned out to be 181 nM.

For `O=C1OCCN1c1nc(-c2ccc(Cl)cc2)cs1` [Example 131, 3-[4-(4-Chlorophenyl)-1,3-thiazol-2-yl]-1,3-oxazolidin-2-one], the IC50 in data set [1] amounted to 41.1 nM.

As for `N#Cc1ccc(-c2csc(N3CCOC3=O)n2)cc1` [Example 132, 4-[2-(2-Oxo-1,3-oxazolidin-3-yl)-1,3-thiazol-4-yl]benzonitrile], the IC50 in data set [1] is 37.6 nM.

`Cn1cc(-c2csc(N3C(=O)OCC3(C)C)n2)cc1C#N` [Example 133, 4-[2-(4,4-Dimethyl-2-oxo-1,3-oxazolidin-3-yl)-1,3-thiazol-4-yl]-1-methyl-1H-pyrrole-2-carbonitrile]: the IC50 in data set [1] amounted to 69.6 nM.

In the case of `Cn1cc(C#N)cc1-c1csc(N2C(=O)OCC2(C)C)n1` [Example 134, 5-[2-(4,4-Dimethyl-2-oxo-1,3-oxazolidin-3-yl)-1,3-thiazol-4-yl]-1-methyl-1H-pyrrole-3-carbonitrile], the IC50 in data set [1] was determined as 284 nM.

As for `CC1(C)CO/C(=N\C#N)N1c1nc(-c2ccc(C#N)cc2)cs1` [Example 135, {(2Z)-3-[4-(4-cyanophenyl)-1,3-thiazol-2-yl]-4,4-dimethyl-1,3-oxazolidin-2-ylidene}cyanamide], the half-inhibitory concentration (IC50) in data set [1] is 64.4 nM.

`CC1(C)CO/C(=N\S(C)(=O)=O)N1c1nc(-c2ccc(C#N)cc2)cs1` [Example 136, N-{(2Z)-3-[4-(4-Cyanophenyl)-1,3-thiazol-2-yl]-4,4-dimethyl-1,3-oxazolidin-2-ylidene}methanesulfonamide]: in data set [1], the inhibition at 3 µM amounted to 100%.

For the molecule `CC(=O)/N=C1\OCC(C)(C)N1c1nc(-c2ccc(C#N)cc2)cs1` [Example 137, N-{(2Z)-3-[4-(4-Cyanophenyl)-1,3-thiazol-2-yl]-4,4-dimethyl-1,3-oxazolidin-2-ylidene}acetamide], the IC50 in data set [1] was 10.8 nM.
